This note sets out measurements from patent US6403626B1, “Benzimidazole derivatives” (Synaptic Pharmaceutical Corporation, priority 1994, dated 2002).

Structures can show the parent of a compound that is named as a salt.

The first data set deals with T1, α2B Human Adrenergic Receptor (Homo sapiens, UniProt P18089).
T1 construct: expressed in transfected cells; host or cells: Y-1 cells
T1 sequence (P18089 1-450): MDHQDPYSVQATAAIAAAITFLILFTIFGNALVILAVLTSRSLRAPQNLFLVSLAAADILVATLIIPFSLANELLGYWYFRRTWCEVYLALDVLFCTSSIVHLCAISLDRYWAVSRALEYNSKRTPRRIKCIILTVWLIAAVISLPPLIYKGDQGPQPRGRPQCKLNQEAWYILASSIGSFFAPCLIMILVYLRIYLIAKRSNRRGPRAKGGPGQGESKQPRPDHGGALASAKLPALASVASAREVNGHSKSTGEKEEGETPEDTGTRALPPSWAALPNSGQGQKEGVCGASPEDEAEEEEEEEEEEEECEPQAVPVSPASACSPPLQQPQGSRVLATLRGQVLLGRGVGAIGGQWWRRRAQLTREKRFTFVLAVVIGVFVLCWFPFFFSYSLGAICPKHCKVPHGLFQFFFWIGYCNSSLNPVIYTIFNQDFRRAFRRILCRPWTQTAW
The data set is described as follows: Equilibrium competition binding, [3H] rauwolscine, membranes of transfected Y-1 cells.
Settings: not given
The method, then: (§1) Binding and functional assays were performed using stably transfected human alpha adrenergic receptors. Equilibrium competition binding assays were performed with membrane preparations from cultured LM(tk-) cells stably transfected with the cloned human adrenoceptor subtypes except for α2b, which was expressed in Y-1 cells, using [^3H] prazosin for α1 receptors and [^3H] rauwolscine for α2 receptors.
(§2) Stable cell lines were selected as described above.
Transfected cells from culture flasks were scraped into 5 ml of 5 mM Tris-HCl, 5 mM EDTA, pH 7.5, and lysed by sonication. The cell lysates were centrifuged at 1000 rpm for 5 min at 4° C., and the supernatant was centrifuged at 30,000×g for 20 min at 4° C. The pellet was suspended in 50 mM Tris-HCl, 1 mM MgCl2, and 0.1% ascorbic acid at pH 7.5. Binding of α2 antagonist [^3H] rauwolscine ([…]) to membrane preparations of LM(tk-) cells was done in a final volume of 0.25 ml and incubated at 37° C. for 20 min. Nonspecific binding was determined in the presence of 10 μM phentolamine. The reaction was stopped by filtration through GF/B filters using a cell harvester.
`Cc1cc(NC2=NCCN2)c(Br)c2[nH]cnc12` [Example 59, 4-Bromo-7-methyl-5-(2-imidazolin-2-ylamino)Benzimidazole]: the affinity, expressed as Ki, was 7.94 nM.

A further data set addresses T1, α2B Human Adrenergic Receptor.
Experiment: not given
The class given is cell-based.
Settings: not given
As for the experimental part:
as §1, §2
(§3) The agonist activity (expressed as pEC50) was measured as a function of the ability to inhibit the forskolin-stimulated synthesis of cyclic adenosine monophosphate (cAMP). The stably transfected cells were incubated in Ham's F10 with 5 mM theophylline, 10 mM HEPES, 10 μM pargyline, and/or appropriate concentrations of forskolin for 20 min at 37° C. in 5% CO2. The tested compounds were then added to a final concentration of 0.001 nM to 1 μM and incubated for an additional 15 min at 37° C. in 5% CO2. The medium was aspirated and the reaction was stopped by the addition of 100 mM HCl . […] The plates are stored at 4° C. for 15 min and assayed to determine the linear concentration of cAMP. The appropriate dilution is interpolated from the standard curve of cold cAMP. The assessment of cAMP formation is determined by radioimmunoassay (cAMP radioimmunoassay kit; Advanced Magnetics, Cambridge, Mass.). Radioactivity was quantified using a Packard COBRA Auto Gamma counter, equipped with data reduction software.
Take `Cc1cc(NC2=NCCN2)c(Br)c2[nH]cnc12` [Example 59, 4-Bromo-7-methyl-5-(2-imidazolin-2-ylamino)Benzimidazole]: the midpoint of the response, the EC50, lay at 40.7 nM and the “I.A Alpha-2 B” value stood at 0.90.

Test system in a further data set: not given
Experiment: not given
Settings: not given
For `Cc1cc(NC2=NCCN2)c(Br)c2[nH]cnc12` [Example 59, 4-Bromo-7-methyl-5-(2-imidazolin-2-ylamino)Benzimidazole], the melting point – broadly, the temperature of the solid-liquid transition – was in the range of 242 to 244 °C.
Molecule `CC(C)n1cnc2c(Br)c(NC3=NCCN3)ccc21` (as salt: fumarate) [Example 18, 1-Isopropyl-4-bromo-5-(2-imidazolin-2-ylamino)Benzimidazole] gave a melting point of 187 to 188 °C.
On the same count and under the same terms, as for `Cc1nc2ccc(NC3=NCCN3)c(Br)c2[nH]1` (as salt: fumarate) [Example 42, 2-Methyl-4-bromo-5-(2-imidazolin-2-ylamino)Benzimidazole], the figure is 222 to 224 °C; as for `Cc1cc(NC2=NCCN2)cc2[nH]cnc12` (as salt: fumarate) [Example 52, 7-Methyl-5-(2-imidazolin-2-ylamino)Benzimidazole], 229 to 231 °C.
In turn, `CCc1nc2ccc(NC3=NCCN3)c(Br)c2[nH]1` (as salt: fumarate) [Example 43, 2-Ethyl-4-bromo-5-(2-imidazolin-2-ylamino)Benzimidazole] registered a melting point of 186 to 187 °C.
`CCCn1cnc2cc(NC3=NCCN3)ccc21` (as salt: fumarate) [Example 13, 1-Propyl-5-(2-imidazolin-2-ylamino)Benzimidazole] had a melting point of 206 to 207 °C.
In turn, `c1ccc(Cn2cnc3cc(NC4=NCCN4)ccc32)cc1` (as salt: fumarate) [Example 32, 1-Benzyl-5-(2-imidazolin-2-ylamino)Benzimidazole] returned a melting point of 174 to 175 °C.
On the same count and under the same terms, as for `c1ccc(Cn2cnc3ccc(NC4=NCCN4)cc32)cc1` (as salt: fumarate) [Example 34, 3-Benzyl-5-(2-imidazolin-2-ylamino)Benzimidazole], the figure is 174 to 175 °C; as for `Brc1c(NC2=NCCN2)ccc2c1ncn2C1CCCC1` (as salt: fumarate) [Example 26, 1-Cyclopentyl-4-bromo-5-(2-imidazolin-2-ylamino)Benzimidazole], 180 to 182 °C.
On the same count and under the same terms, as for `COc1cccc(Cn2cnc3c(Br)c(NC4=NCCN4)ccc32)c1` (as salt: fumarate) [Example 37, 1-(3-Methoxybenzyl)-4-bromo-5-(2-imidazolin-2-ylamino)Benzimidazole], the figure is 177 to 178 °C.
The same measure, in the same setting: as for `c1cc2c(cc1NC1=NCCN1)ncn2C1CCCC1` (as salt: fumarate) [Example 25, 1-Cyclopentyl-5-(2-imidazolin-2-ylamino)Benzimidazole], the figure is 214 to 215 °C; as for `Cn1cnc2ccc(NC3=NCCN3)cc21` (as salt: fumarate) [Example 11, 3-Methyl-5-(2-imidazolin-2-ylamino)Benzimidazole], 202 to 204 °C; as for `Brc1c(NC2=NCCN2)ccc2ncn(C3CCCC3)c12` (as salt: fumarate) [Example 28, 3-Cyclopentyl-4-bromo-5-(2-imidazolin-2-ylamino)Benzimidazole], 208 to 210 °C.
`c1cc2ncn(C3CCCC3)c2cc1NC1=NCCN1` (as salt: fumarate) [Example 27, 3-Cyclopentyl-5-(2-imidazolin-2-ylamino)Benzimidazole] returned a melting point of 158 to 159 °C.
The same measure, in the same setting: as for `CC(C)Cn1cnc2ccc(NC3=NCCN3)c(Br)c21` (as salt: fumarate) [Example 24, 3-Isobutyl-4-bromo-5-(2-imidazolin-2-ylamino)Benzimidazole], the figure is 187 to 188 °C; as for `CCCCc1c(NC2=NCCN2)ccc2nc[nH]c12` (as salt: fumarate) [Example 8, 4-n-Butyl-5-(2-imidazolin-2-ylamino)Benzimidazole], 96 °C.
`OCCn1cnc2c(Br)c(NC3=NCCN3)ccc21` (as salt: fumarate) [Example 38, 1-(2-Hydroxyethyl)-4-bromo-5-(2-imidazolin-2-ylamino)Benzimidazole] returned a melting point of 141 to 143 °C.
`c1nc2ccc(NC3=NCCN3)cc2[nH]1` (as salt: fumarate) [Example 1, 5-(2-Imidazolin-2-ylamino)Benzimidazole]: the melting point was 196 to 198 °C.
Still for that read-out and setting: with `CC(C)n1cnc2c(I)c(NC3=NCCN3)ccc21` (as salt: fumarate) [Example 19, 1-lsopropyl-4-Iodo-5-(2-imidazolin-2-ylamino)Benzimidazole] the figure was 208 to 209 °C; with `Brc1c(NC2=NCCN2)ccc2c1ncn2CC1CCCCC1` (as salt: fumarate) [Example 30, 1-Cyclohexylmethyl-4-bromo-5-(2-imidazolin-2-ylamino)Benzimidazole], 193 to 195 °C.
Molecule `Ic1c(NC2=NCCN2)ccc2nc[nH]c12` (as salt: fumarate) [Example 5, 4-Iodo-5-(2-imidazolin-2-ylamino)Benzimidazole] returned a melting point of 256 °C.
For the molecule `CCCn1cnc2ccc(NC3=NCCN3)cc21` (as salt: fumarate) [Example 15, 3-Propyl-5-(2-imidazolin-2-ylamino)Benzimidazole], the melting point was 198 to 199 °C.
In the case of `Brc1c(NC2=NCCN2)ccc2nc(C(c3ccccc3)c3ccccc3)[nH]c12` (as salt: fumarate) [Example 48, 2-Diphenylmethyl-4-bromo-5-(2-imidazolin-2-ylamino)Benzimidazole], the melting point was 240 to 242 °C.
Same read-out and setting: as for `Clc1cc(NC2=NCCN2)c(Br)c2[nH]cnc12` (as salt: fumarate) [Example 60, 4-Bromo-7-chloro-5-(2-imidazolin-2-ylamino)Benzimidazole], the figure is 244 to 246 °C; as for `CC(C)Cn1cnc2cc(NC3=NCCN3)ccc21` (as salt: fumarate) [Example 22, 1-Isobutyl-5-(2-imidazolin-2-ylamino)Benzimidazole], 185 to 186 °C.
The same measure, in the same setting: with `c1ccc(-c2cc(NC3=NCCN3)cc3[nH]cnc23)cc1` (as salt: fumarate) [Example 57, 7-Phenyl-5-(2-imidazolin-2-ylamino)Benzimidazole] the figure was 149 to 151 °C; with `CC(C)n1cnc2ccc(NC3=NCCN3)c(Br)c21` (as salt: fumarate) [Example 21, 3-Isopropyl-4-bromo-5-(2-imidazolin-2-ylamino)Benzimidazole], 210 to 212 °C.

The target in the next data set is T2, α2C Human Adrenergic Receptor (Homo sapiens, UniProt P18825).
T2 sequence (P18825 1-462): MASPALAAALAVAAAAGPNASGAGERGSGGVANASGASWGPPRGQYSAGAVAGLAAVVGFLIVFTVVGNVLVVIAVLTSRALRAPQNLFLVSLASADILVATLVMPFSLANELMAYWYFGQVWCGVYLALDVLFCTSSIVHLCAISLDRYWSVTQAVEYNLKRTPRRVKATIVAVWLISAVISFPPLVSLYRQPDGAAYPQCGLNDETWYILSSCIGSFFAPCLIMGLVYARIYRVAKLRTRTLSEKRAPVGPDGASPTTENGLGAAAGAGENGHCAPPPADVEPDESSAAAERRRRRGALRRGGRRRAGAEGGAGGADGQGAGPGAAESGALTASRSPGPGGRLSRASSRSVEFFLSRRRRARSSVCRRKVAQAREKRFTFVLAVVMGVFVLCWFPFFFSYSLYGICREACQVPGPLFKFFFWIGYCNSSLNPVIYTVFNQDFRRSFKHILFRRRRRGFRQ
The data set is described as follows: Equilibrium competition binding, [3H] rauwolscine, membranes of transfected LM(tk-) cells.
Settings: not given
Take `Cc1cc(NC2=NCCN2)c(Br)c2[nH]cnc12` [Example 59, 4-Bromo-7-methyl-5-(2-imidazolin-2-ylamino)Benzimidazole]: the Ki (as a rule, a measure of affinity in units of concentration, obtained from inhibition or displacement) was 16.6 nM.

Another data set concerns the target T2, α2C Human Adrenergic Receptor.
Experiment: not given
The class given is cell-based. Set-up: The entire coding region of α2C (1383 bp), including 2 bp of 5′ UT and 400 bp of 3′ UT; expressed in transfected cells; host or cells: LM(tk-) cells.
Settings: not given
The method, then:
as §1
The insert housing this coding region was an @ 1.8 kb Ncol/EcoRI human spleen genomic fragment which was end-blunted by either T4 polymerase or Klenow fragment of DNA polymerase. Stable cell lines were selected as described above.
as §3
As to `Cc1cc(NC2=NCCN2)c(Br)c2[nH]cnc12` [Example 59, 4-Bromo-7-methyl-5-(2-imidazolin-2-ylamino)Benzimidazole], the concentration for a half-maximal effect (EC50) (usually the concentration giving half of the maximal effect) is 1.29 nM.

The same data set, now with this note: functional cAMP assay.
Turning to `Cc1cc(NC2=NCCN2)c(Br)c2[nH]cnc12` [Example 59, 4-Bromo-7-methyl-5-(2-imidazolin-2-ylamino)Benzimidazole], the “I.A Alpha-2 C” value was determined as 1.00.
